Measured values taken from PubChem BioAssay AID2060509 (Molecular Pharmacology Branch, DTP, NCI, 2025).

Test system: 485176-168-R4-J1-PDC spheroids with HUVEC/MSC, viability
Assay: Anticancer human tumor 485176-168-R4-J1-PDC patient-derived pancreatic adenocarcinoma cell line growth inhibition [GQUAD]
Details: for IC50: curve of first compound; for viability, T/C: stronger effect = lower value
Procedure, shortened: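 Viability of tumor cells grown as complex spheroids with endothelial and stromal cells, exposed to drug combinations. Top concentration at or near clinical Cmax (else 10 microM), diluted in half-log increments.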

[1] = second compound 0.0316 µM, first compound 0.0316 µM
[2] = second compound 0.0316 µM, first compound 0.1 µM
[3] = second compound 0.0316 µM, first compound 0.316 µM
[4] = second compound 0.0316 µM, first compound 1 µM
[5] = second compound 0.0316 µM, first compound 3.16 µM
[6] = second compound 0.0316 µM, first compound 10 µM
[7] = second compound 0.1 µM, first compound 0.0316 µM
[8] = second compound 0.1 µM, first compound 0.1 µM
[9] = second compound 0.1 µM, first compound 0.316 µM
[10] = second compound 0.1 µM, first compound 1 µM
[11] = second compound 0.1 µM, first compound 3.16 µM
[12] = second compound 0.1 µM, first compound 10 µM
[13] = second compound 0.316 µM, first compound 0.0316 µM
[14] = second compound 0.316 µM, first compound 0.1 µM
[15] = second compound 0.316 µM, first compound 0.316 µM
[16] = second compound 0.316 µM, first compound 1 µM
[17] = second compound 0.316 µM, first compound 3.16 µM
[18] = second compound 0.316 µM, first compound 10 µM
[19] = second compound 1 µM, first compound 0.0316 µM
[20] = second compound 1 µM, first compound 0.1 µM
[21] = second compound 1 µM, first compound 0.316 µM
[22] = second compound 1 µM, first compound 1 µM
[23] = second compound 1 µM, first compound 3.16 µM
[24] = second compound 1 µM, first compound 10 µM
[25] = second compound 3.16 µM, first compound 0.0316 µM
[26] = second compound 3.16 µM, first compound 0.1 µM
[27] = second compound 3.16 µM, first compound 0.316 µM
[28] = second compound 3.16 µM, first compound 1 µM
[29] = second compound 3.16 µM, first compound 3.16 µM
[30] = second compound 3.16 µM, first compound 10 µM
[31] = second compound 10 µM, first compound 0.0316 µM
[32] = second compound 10 µM, first compound 0.1 µM
[33] = second compound 10 µM, first compound 0.316 µM
[34] = second compound 10 µM, first compound 1 µM
[35] = second compound 10 µM, first compound 3.16 µM
[36] = second compound 10 µM, first compound 10 µM
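Also: spheroids exposed to compounds for seven days before readout.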
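For viability, T/C in this document: percent viability relative to DMSO vehicle control wells as 100%.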

Molecule CC(=O)O[C@H]1C(=O)[C@@]2(C)[C@H]([C@H](OC(=O)c3ccccc3)[C@]3(O)C[C@H](OC(=O)[C@H](O)[C@@H](NC(=O)c4ccccc4)c4ccccc4)C(C)=C1C3(C)C)[C@]1(OC(C)=O)CO[C@@H]1C[C@@H]2O + CN(C)c1ccc(Nc2c3ccc(NC(=O)CCN4CCCC4)cc3nc3cc(NC(=O)CCN4CCCC4)ccc23)cc1 has an IC50 (second compound 0.0316 µM) of less than 31.6 nM, an IC50 (second compound 0.1 µM) of less than 31.6 nM and an IC50 (second compound 0.316 µM) of less than 31.6 nM. The IC50 (second compound 1 µM) was less than 31.6 nM, the IC50 (second compound 3.16 µM) was less than 31.6 nM and the IC50 (second compound 10 µM) was less than 31.6 nM. The viability, T/C [1] was 34.3%, the viability, T/C [2] was 14.3% and the viability, T/C [3] was 14.3%. It also gave a viability, T/C [4] of 11.6%, a viability, T/C [5] of 11% and a viability, T/C [6] of 14.1%. The viability, T/C [7] was 31.9%, the viability, T/C [8] was 15% and the viability, T/C [9] was 14.1%. The viability, T/C [10] was 14.9%, the viability, T/C [11] was 12% and the viability, T/C [12] was 11.3%. For the same molecule, the viability, T/C [13] was 33.3%, the viability, T/C [14] was 15.6% and the viability, T/C [15] was 12.9%. The viability, T/C [16] was 13.7%, the viability, T/C [17] was 11.5% and the viability, T/C [18] was 10.9%. The viability, T/C [19] was 31%, the viability, T/C [20] was 13.3% and the viability, T/C [21] was 12.2%. It also gave a viability, T/C [22] of 14%, a viability, T/C [23] of 11.5% and a viability, T/C [24] of 9.76%. It also gave a viability, T/C [25] of 36.9%, a viability, T/C [26] of 11.3% and a viability, T/C [27] of 16.1%. The viability, T/C [28] was 13.6%, the viability, T/C [29] was 12.5% and the viability, T/C [30] was 11.3%. The viability, T/C [31] was 28.3%, the viability, T/C [32] was 12.4% and the viability, T/C [33] was 13.1%. It also gave a viability, T/C [34] of 11.5%, a viability, T/C [35] of 10.6% and a viability, T/C [36] of 12%.

COc1cccc2c1C(=O)c1c(O)c3c(c(O)c1C2=O)CC(O)(C(=O)CO)CC3OC1CC(N)C(O)C(C)O1 (stereo unspecified) + CN(C)c1ccc(Nc2c3ccc(NC(=O)CCN4CCCC4)cc3nc3cc(NC(=O)CCN4CCCC4)ccc23)cc1 showed an IC50 (second compound 0.0316 µM) of 271 nM, an IC50 (second compound 0.1 µM) of 263 nM and an IC50 (second compound 0.316 µM) of 417 nM. It also gave an IC50 (second compound 1 µM) of 412 nM, an IC50 (second compound 3.16 µM) of 396 nM and an IC50 (second compound 10 µM) of 305 nM. The viability, T/C [1] was 104%, the viability, T/C [2] was 65.5% and the viability, T/C [3] was 59.2%. It also gave a viability, T/C [4] of 15.4%, a viability, T/C [5] of 3.54% and a viability, T/C [6] of 0.22%. The viability, T/C [7] was 95.2%, the viability, T/C [8] was 70.9% and the viability, T/C [9] was 49.2%. For the same molecule, the viability, T/C [10] was 17.8%, the viability, T/C [11] was 2.43% and the viability, T/C [12] was 0.16%. It also gave a viability, T/C [13] of 84.9%, a viability, T/C [14] of 67% and a viability, T/C [15] of 62%. It also gave a viability, T/C [16] of 22.5%, a viability, T/C [17] of 3.97% and a viability, T/C [18] of 0.2%. It also gave a viability, T/C [19] of 99.5%, a viability, T/C [20] of 78.2% and a viability, T/C [21] of 64.1%. For the same molecule, the viability, T/C [22] was 17.4%, the viability, T/C [23] was 4.15% and the viability, T/C [24] was 0.16%. It also gave a viability, T/C [25] of 84.2%, a viability, T/C [26] of 83.2% and a viability, T/C [27] of 53.4%. The viability, T/C [28] was 25.7%, the viability, T/C [29] was 2.96% and the viability, T/C [30] was 0.21%. The viability, T/C [31] was 72.2%, the viability, T/C [32] was 68.4% and the viability, T/C [33] was 48.5%. It also gave a viability, T/C [34] of 22.9%, a viability, T/C [35] of 5.36% and a viability, T/C [36] of 0.33%.

Cn1ncnc1[C@H]1c2n[nH]c(=O)c3cc(F)cc(c23)N[C@@H]1c1ccc(F)cc1 + Cc1cnc(CNC(=O)c2c(=O)c3ccc(N4CCCN(C)CC4)nc3n3c2sc2ccccc23)cn1 was tested, and the IC50 (second compound 0.0316 µM) was greater than 316 nM, the IC50 (second compound 0.1 µM) was greater than 316 nM and the IC50 (second compound 0.316 µM) was greater than 316 nM. The IC50 (second compound 1 µM) was greater than 316 nM, the IC50 (second compound 3.16 µM) was 7.33 nM and the IC50 (second compound 10 µM) was less than 0.999 nM. It also gave a viability, T/C (second compound 0.0316 µM, first compound 0.000999 µM) of 90.2%, a viability, T/C (second compound 0.0316 µM, first compound 0.00316 µM) of 79% and a viability, T/C (second compound 0.0316 µM, first compound 0.00999 µM) of 91.5%. The viability, T/C [1] was 90.2%, the viability, T/C (second compound 0.0316 µM, first compound 0.0999 µM) was 91.4% and the viability, T/C [3] was 80.8%. The viability, T/C (second compound 0.1 µM, first compound 0.000999 µM) was 74.4%, the viability, T/C (second compound 0.1 µM, first compound 0.00316 µM) was 91.7% and the viability, T/C (second compound 0.1 µM, first compound 0.00999 µM) was 75.8%. The viability, T/C [7] was 77.3%, the viability, T/C (second compound 0.1 µM, first compound 0.0999 µM) was 78.9% and the viability, T/C [9] was 69.9%. For the same molecule, the viability, T/C (second compound 0.316 µM, first compound 0.000999 µM) was 63.6%, the viability, T/C (second compound 0.316 µM, first compound 0.00316 µM) was 70.5% and the viability, T/C (second compound 0.316 µM, first compound 0.00999 µM) was 64.8%. For the same molecule, the viability, T/C [13] was 62.7%, the viability, T/C (second compound 0.316 µM, first compound 0.0999 µM) was 56.2% and the viability, T/C [15] was 68.7%. It also gave a viability, T/C (second compound 1 µM, first compound 0.000999 µM) of 49.3%, a viability, T/C (second compound 1 µM, first compound 0.00316 µM) of 61.2% and a viability, T/C (second compound 1 µM, first compound 0.00999 µM) of 74%. The viability, T/C [19] was 51.8%, the viability, T/C (second compound 1 µM, first compound 0.0999 µM) was 52.8% and the viability, T/C [21] was 48.5%. It also gave a viability, T/C (second compound 3.16 µM, first compound 0.000999 µM) of 45.4%, a viability, T/C (second compound 3.16 µM, first compound 0.00316 µM) of 63.9% and a viability, T/C (second compound 3.16 µM, first compound 0.00999 µM) of 48.3%. It also gave a viability, T/C [25] of 45.3%, a viability, T/C (second compound 3.16 µM, first compound 0.0999 µM) of 45.4% and a viability, T/C [27] of 40%. The viability, T/C (second compound 10 µM, first compound 0.000999 µM) was 42.8%, the viability, T/C (second compound 10 µM, first compound 0.00316 µM) was 48.4% and the viability, T/C (second compound 10 µM, first compound 0.00999 µM) was 39.2%. For the same molecule, the viability, T/C [31] was 34.8%, the viability, T/C (second compound 10 µM, first compound 0.0999 µM) was 38.1% and the viability, T/C [33] was 33.5%.
